From patent US20050048462A1, “Markers and screens” (priority 2001, published 2005) come the findings set out here.

Structures are written as SMILES. Bounds are passed on as bounds.

Type in all cases: cell-based
Data set [1] relates to GFP-tagged gelsolin in hippocampal neurons. In words: Gelsolin accumulation in dendritic spines, receptor subtype specificity.
Description: Imaging was performed at 37° C. in Tyrode's solution pH 7.3, with GFP-optimized filters (Chroma Technologies, Brattleboro, Vt.) and a MicroMax cooled CCD camera (Princeton Instruments, Trenton, N.J.) controlled by Metamorph software (Universal Imaging corporation, West Chester, Pa.). Cells were stimulated by addition of glutamate or NMDA (5 to 10 μM) for up to 30 minutes. In experiments where specific receptor subtypes were blocked, cells were preincubated for 15 minutes with corresponding antagonists.
In these experiments only 2.5 μM glutamate was used.
For data set [2], the system named is hippocampal neurons expressing unmodified GFP. Briefly: Distribution of unmodified GFP in dendrites after glutamate (control construct). The conditions noted are these: 10 μM glutamate. The method, then: (§1) To test this hypothesis we exposed hippocampal neurons expressing GFP-tagged profilin II or profilin I or unmodified GFP to 10 μM glutamate (FIG. 2). […] Glutamate treatment also produced a weaker shift of GFP tagged profilin I into spines (FIG. 2D) which, however, never approached the high levels seen for profilin II.

Data set [3] relates to cultured hippocampal neurons. The conditions noted are these: glutamate 100 microM for 30 min. From the text: This is relevant to stroke and epilepsy where hyperstimulation of receptors by released glutamate causes neuronal damage. Thus it appears that profilin II tagging occurs even after events that ultimately lead to apoptosis have been set in motion. In toxicity models, profilin II targeting could thus act as a marker for potentially damaged cells at times before cell death occurs.

Data set [4] has as its system hippocampal neurons expressing GFP-tagged profilin I. Briefly: Profilin I-GFP redistribution to spines after glutamate. The settings on record: 10 μM glutamate; compared with profilin II. The method, then:
as §1

[5] abbreviates: treated with glutamate (2.5 μM) while blocking specific receptor subtypes.
[6] abbreviates: treated with agonists for specific receptor subtypes.

With `CC(N)(C(=O)O)c1ccc(C(=O)O)cc1` (racemic) [MCPG, (R, S)-[…]-methyl-4-carboxyphenylglycine], in data set [1] (setting [5]), the “Accumulation (+) of gelsolin, number of cells” value (shortened to “Accumulation (+) of gelsolin”) was determined as 3 and the “No change (−) of gelsolin, number of cells” value (from here on “No change (−) of gelsolin”) came out at 8.

For the compound `Cc1onc(O)c1CC(N)C(=O)O` (centres unmarked) [AMPA, amino-3-hydroxy-5-methyl-4-isoxazolepropionic acid], in data set [1] (setting [6]), the “Accumulation (+) of gelsolin” value was 0 and the “No change (−) of gelsolin” value turned out to be 10.

As for `N[C@H](CCCP(=O)(O)O)C(=O)O` [APV, D(−)-2-amino-5-phosphonopentanoic acid], in data set [1] (setting [5]), the “Accumulation (+) of gelsolin” value is recorded as 1 and the “No change (−) of gelsolin” value came out at 14.

For the compound `N[C@H](C(=O)O)c1cc(O)cc(O)c1` [DHPG, (S)-3,5-dihydroxyphenylglycine], in data set [1] (setting [6]), the “Accumulation (+) of gelsolin” value came to 4 and the “No change (−) of gelsolin” value is given as 7.

For the compound `NS(=O)(=O)c1cccc2c1c([N+](=O)[O-])cc1[nH]c(=O)c(=O)[nH]c12` [NBQX, 1,2,3,4-Tetrahydro-6-nitro-2,3-dioxo-benzo[f]quinoxaline-7-sulfonamide], in data set [1] (setting [5]), the “Accumulation (+) of gelsolin” value is given as 7 and the “No change (−) of gelsolin” value is 6.

Turning to `CN[C@H](CC(=O)O)C(=O)O` [NMDA, N-methyl-D-aspartate], in data set [1] (setting [6]), the “Accumulation (+) of gelsolin” value came out at 11 and the “No change (−) of gelsolin” value was 16.

As to `N[C@@H](CCC(=O)O)C(=O)O` [glutamate], in data set [2], the “Distribution of unmodified GFP (in words)” value is on record as “did not change the distribution”. Further, in data set [2] (GFP construct), the “Number of cells in category −” value came out at 7. Besides, in data set [3], the “Profilin II-GFP targeting despite degenerative changes (in words)” value is on record as “still targeted to punctate sites within dendrites” and the “Time to excitotoxic changes (loss of normal morphology, swelling of dendrites)” value is ≤ 2 min. The “Shift of GFP tagged profilin I into spines (in words)” value in data set [4] is “weaker shift”.
